According to patent US11834448B2, “2-amino-quinoline derivatives” (BIRDIE BIOPHARMACEUTICALS, INC., priority 2017, dated 2023):

Tests used:
[1] = tested on: Human PBMCs; test: Cytokine production in PBMCs: human IL-6 by ELISA; type: cell-based; set-up: key: ″+″ means that there was production of IFNa or IL-6 on PBMC; ″−″means that noproduction of IFNa or IL-6 on PBMC was detected; conditions: compounds tested at concentration of 10 uM; human PBMCs cultured 20-22 hours; supernatant ELISA
Protocol: (§1) The compound functionality was tested for some of the compounds prepared by stimulation and determination of cytokine production in PBMCs.
(§2) Human PBMCs were prepared from buffy coat obtained from healthy volunteer donor by Ficoll centrifugation and were adjusted to the final cell concentration to 1×10^6 cells/mL.
(§3) For evaluation of compound activities, 1×10^5 PBMCs were plated in a 96-well plate in 100 μl of RPMI 1640 complete medium (cat no. 31800-022, GIBCO by Life Technologies, Grand Island, NY, USA) supplemented with 10% fetal bovine serum, the tested compound was first dissolved in DMSO and further diluted in PBS and RPMI 1640 medium to the final concentration of […] (corresponding to 6.28 μg/mL), then 3-fold serially dilution was made in a 96-well round-bottom plate. 100 μl diluted compound was added to the same volume of 1×10^5 PBMCs plate and cultured for 20-22 hours at 37° C. in a humidified atmosphere of 5% CO2. The supernatant was collected for human IFN-α, IL12(p70) and IL-6 analysis by ELISA assay according to the manufacturer's instructions (Mabtech AB, Sweden). Resiquimod was used as a positive control.

[2] = tested on: Human PBMCs; test: Cytokine production in PBMCs: human IFN-α by ELISA; type: cell-based; set-up: key: ″+″ means that there was production of IFNa or IL-6 on PBMC; ″−″means that noproduction of IFNa or IL-6 on PBMC was detected; conditions: compounds tested at concentration of 10 uM; human PBMCs cultured 20-22 hours; supernatant ELISA
Protocol: as §1, §2, §3

Compound | Production of IL−6 on PBMC [1] | Production of IFNa on PBMC [2]
CCOCc1nc2c(N)nc3cccc4c3c2n1C[C@](C)(O)CO4 [Compound 42, (S)-2-amino-12-(ethoxymethyl)-6-methyl-6,7-dihydro-5H-3,4-(azenometheno)[1,5]oxazocino[4,3,2-de]quinolin-6-ol] | + | +
CCOCc1nc2c(N)nc3cccc4c3c2n1C[C@@H](O)CO4 [Compound 44, (R)-2-amino-12-(ethoxymethyl)-6,7-dihydro-5H-3,4-(azenometheno)[1,5]oxazocino[4,3,2-de]quinolin-6-ol] | − | 
CCOCc1nc2c(N)nc3cccc(OC4CCNC4)c3c2n1C (centres unmarked) [Compound 28, 2-(ethoxymethyl)-1-methyl-9-(pyrrolidin-3-yloxy)-1H-imidazo[4,5-c]quinolin-4-amine] | + | +
CCOCc1nc2c(N)nc3cccc(OCCC(C)(C)O)c3c2[nH]1 [Compound 5, 4-((4-amino-2-(ethoxymethyl)-1H-imidazo[4,5-c]quinolin-9-yl)oxy)-2-methylbutan-2-ol] | + | +
CCOCc1nc2c(N)nc3cccc(OC4CCNCC4)c3c2n1C [Compound 29, 2-(ethoxymethyl)-1-methyl-9-(piperidin-4-yloxy)-1H-imidazo[4,5-c]quinolin-4-amine] | + | +
CCOCc1nc2c(N)nc3cccc(OC)c3c2n1CCOC(C)C [Compound 13, 2-(ethoxymethyl)-1-(2-isopropoxyethyl)-9-methoxy-1H-imidazo[4,5-c]quinolin-4-amine] | + | +
CCCCn1cc2c(n1)c(N)nc1cccc(OCCC(C)C)c12 [Compound 33, 2-butyl-9-(isopentyloxy)-2H-pyrazolo[3,4-c]quinolin-4-amine] | + | −
CCOCc1nc2c(N)nc3cccc(OCC(C)O)c3c2[nH]1 (centres unmarked) [Compound 8, 1-((4-amino-2-(ethoxymethyl)-1H-imidazo[4,5-c]quinolin-9-yl)oxy)propan-2-ol] | + | +
CCOCc1nc2c(N)nc3cccc(OCC(C)C)c3c2n1C [Compound 18, 2-(ethoxymethyl)-9-isobutoxy-1-methyl-1H-imidazo[4,5-c]quinolin-4-amine] | + | +
CCOCc1nc2c(N)nc3cccc(OCCOC(C)C)c3c2[nH]1 [Compound 11, 2-(ethoxymethyl)-9-(2-isopropoxyethoxy)-1H-imidazo[4,5-c]quinolin-4-amine] | + | +
CCOCc1nc2c(N)nc3cccc(OC4CCOC4)c3c2n1C (centres unmarked) [Compound 27, 2-(ethoxymethyl)-1-methyl-9-((tetrahydrofuran-3-yl)oxy)-1H-imidazo[4,5-c]quinolin-4-amine] | + | +
CC(C)CCOc1cccc2nc(N)c3nn(CCC(C)C)cc3c12 [Compound 32, 2-isopentyl-9-(isopentyloxy)-2H-pyrazolo[3,4-c]quinolin-4-amine] | − | −
COc1cccc2nc(N)c3nc(CCO)n(CC(C)(C)O)c3c12 [Compound 4, 1-(4-amino-2-(2-hydroxyethyl)-9-methoxy-1H-imidazo[4,5-c]quinolin-1-yl)-2-methylpropan-2-ol] | − | −
CCOCc1nc2c(N)nc3cccc(OCCC(C)O)c3c2[nH]1 (centres unmarked) [Compound 7, 4-((4-amino-2-(ethoxymethyl)-1H-imidazo[4,5-c]quinolin-9-yl)oxy)butan-2-ol] | + | 
CCOCc1nc2c(N)nc3cccc(OCCCCNS(C)(=O)=O)c3c2n1C [Compound 22, N-(4-((4-amino-2-(ethoxymethyl)-1-methyl-1H-imidazo[4,5-c]quinolin-9-yl)oxy)butyl)methanesulfonamide] | + | +
CCOCc1nc2c(N)nc3cccc(OCCOCCNS(C)(=O)=O)c3c2n1C [Compound 20, N-(2-(2-((4-amino-2-(ethoxymethyl)-1-methyl-1H-imidazo[4,5-c]quinolin-9-yl)oxy)ethoxy)ethyl)-methanesulfonamide] | + | +
CCOCc1nc2c(N)nc3cccc(OC)c3c2n1CCC(C)(C)O [Compound 14, 4-(4-amino-2-(ethoxymethyl)-9-methoxy-1H-imidazo[4,5-c]quinolin-1-yl)-2-methylbutan-2-ol] | + | +

Compound | Production of IL−6 on PBMC [1] | Production of IFNa on PBMC [2]
CCCCCCCCCCCCCCCCCC(=O)NCCCCOc1cccc2nc(N)c3nc(COCC)n(C)c3c12 [Compound 25, N-(4-((4-amino-2-(ethoxymethyl)-1-methyl-1H-imidazo[4,5-c]quinolin-9-yl)oxy)butyl)-stearamide] | + | +
CC(C)CCn1cc2c(n1)c(N)nc1cccc(O)c12 [Compound 31, 4-amino-2-isopentyl-2H-pyrazolo[3,4-c]quinolin-9-ol] | − | −
CCOCc1nc2c(N)nc3cccc(OC(C)C)c3c2n1C [Compound 37, 2-(ethoxymethyl)-9-isopropoxy-1-methyl-1H-imidazo[4,5-c]quinolin-4-amine] | + | +
CCOCc1nc2c(N)nc3cccc(OCCC(C)C)c3c2[nH]1 [Compound 6, 2-(ethoxymethyl)-9-(isopentyloxy)-1H-imidazo[4,5-c]quinolin-4-amine] | + | 
CCOCc1nc2c(N)nc3cccc4c3c2n1C[C@@](C)(O)CO4 [Compound 43, (R)-2-amino-12-(ethoxymethyl)-6-methyl-6,7-dihydro-5H-3,4-(azenometheno)[1,5]oxazocino[4,3,2-de]quinolin-6-ol] | − | 
CCOCc1nc2c(N)nc3cccc(OCC(C)(C)O)c3c2n1C [Compound 38, 1-((4-amino-2-(ethoxymethyl)-1-methyl-1H-imidazo[4,5-c]quinolin-9-yl)oxy)-2-methylpropan-2-ol] | + | +
CCOCc1nc2c(N)nc3cccc4c3c2n1CCO4 [Compound 39, 2-(ethoxymethyl)-3,4-dihydro-5-oxa-1,2a,9-triazanaphtho[2,1,8-cde]azulen-10-amine] | + | +
CCOCc1nc2c(N)nc3cccc4c3c2n1[C@H](C(C)(C)O)CO4 [Compound 41, (S)-2-(10-amino-2-(ethoxymethyl)-3,4-dihydro-5-oxa-1,2a,9-triazanaphtho[2,1,8-cde]azulen-3-yl)propan-2-ol] | + | 
CCOCc1nc2c(N)nc3cccc(OCCC(C)(C)O)c3c2n1C [Compound 10, 4-((4-amino-2-(ethoxymethyl)-1-methyl-1H-imidazo[4,5-c]quinolin-9-yl)oxy)-2-methylbutan-2-ol] | + | 
COCCc1nc2c(N)nc3cccc(OCCC(C)(C)O)c3c2[nH]1 [Compound 9, 4-((4-amino-2-(2-methoxyethyl)-1H-imidazo[4,5-c]quinolin-9-yl)oxy)-2-methylbutan-2-ol] | + | 
COCCc1nc2c(N)nc3cccc(OC)c3c2n1CC(C)(C)O [Compound 3, 1-(4-amino-9-methoxy-2-(2-methoxyethyl)-1H-imidazo[4,5-c]quinolin-1-yl)-2-methylpropan-2-ol] | − | −
CCOCc1nc2c(N)nc3cccc(OCCCNS(C)(=O)=O)c3c2n1C [Compound 19, N-(3-((4-amino-2-(ethoxymethyl)-1-methyl-1H-imidazo[4,5-c]quinolin-9-yl)oxy)propyl)methanesulfonamide] | + | +
CCOCc1nc2c(N)nc3cccc4c3c2n1C[C@H](O)CO4 [Compound 45, (S)-2-amino-12-(ethoxymethyl)-6,7-dihydro-5H-3,4-(azenometheno)[1,5]oxazocino-[4,3,2-de]quinolin-6-ol] | + | 
CCOCc1nc2c(N)nc3cccc(OC)c3c2n1CC(C)C [Compound 2, 2-(ethoxymethyl)-1-isobutyl-9-methoxy-1H-imidazo[4,5-c]quinolin-4-amine] | + | +
CCOCc1nc2c(N)nc3cccc4c3c2n1CC(=O)CO4 [Compound 46, 2-amino-12-(ethoxymethyl)-5H-3,4-(azenometheno)[1,5]oxazocino[4,3,2-de]quinolin-6(7H)-one] | + | 
CCOCc1nc2c(N)nc3cccc4c3c2n1[C@@H](C(C)(C)O)CO4 [Compound 40, (R)-2-(10-amino-2-(ethoxymethyl)-3,4-dihydro-5-oxa-1,2a,9-triazanaphtho[2,1,8-cde]azulen-3-yl)propan-2-ol] | − | 
